Results on one molecule are retold here after paper PMC12586598, “A novel long-acting C5a-blocking cyclic peptide prevents sepsis-induced organ dysfunction via effective blockade of the inflammatory cascade” (Signal Transduction and Targeted Therapy, 2025).

Where a SMILES comes first, the peptide text is derived from it.

Data set [1] has as its system human peripheral blood mononuclear cells (PBMCs). The experiment in a line: RNA sequencing of C5a-stimulated PBMCs. It is filed as cell-based. The following applies: |log2FoldChange| ≥ 1, P < 0.05. The procedure:
Human peripheral mononuclear cells were stimulated with 100 ng/mL of human C5a protein (MCE, China) or a complex of human C5a with Cp1 for 1 h. After RNA extraction, purification and library construction, the Next-Generation Sequencing (NGS) technology was used to perform paire-end (PE) sequencing based on Illumina sequencing platform in Bioprofile Biotechnology Co., Ltd (Shanghai, China). The expression of each gene was calculated and further subjected to differential expression analysis, enrichment analysis and cluster analysis.

The target of a further data set is T1, human C5a (Homo sapiens, UniProt P01031).
T1 construct: human C5a (ACROBiosystems, Beijing, China); purchased ACROBiosystems
T1 sequence (P01031 678-751 limits assumed): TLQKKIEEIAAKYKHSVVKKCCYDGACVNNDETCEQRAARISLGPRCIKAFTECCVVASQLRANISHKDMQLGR
In words: SPR binding affinity assay, immobilized human C5a. The protocol: Surface plasmon resonance (SPR) analysis was conducted using Biacore 2000 system (GE Healthcare, Germany) at 37°C in running buffer (20 mM Tris-HCl, pH 7.4, 150 mM NaCl, 5 mM KCl, 1 mM MgCl₂, 1 mM CaCl₂). The CM5 sensor chips (GE Healthcare) were activated with NHS/EDC, followed by immobilization of mouse C5a (ACROBiosystems, Beijing, China), human C5a (ACROBiosystems, Beijing, China), mouse C5 (ACROBiosystems, Beijing, China) or mouse C5a-desArg (MCE, Shanghai, China). The peptide-protein interactions were characterized using a concentration-gradient approach (low to high) with a continuous flow rate of 30 μL/min (150 s injection duration). Between analyte concentrations, the sensor surface was regenerated with 10 mM glycine-HCl (pH 2.0; 5 min treatment). Binding and dissociation constants were obtained by globally fitting the data to a 1:1 Langmuir binding model using a Biacore Insight evaluation software (Cytiva, USA).

For another data set, the system named is normal mice. The experiment in a line: Systemic safety evaluation in normal mice. As to conditions: 100 μg/20 g i.v., 24 h. The data set is classed as in vivo. The procedure:
The cytotoxic potential of cyclic-peptides was evaluated in HUVECs and RAW 264.7 cells. Cells were incubated with serially diluted Cp1 (1 pg-100 μg/mL) for 24 hours at 37°C in a 5% CO₂ humidified atmosphere, followed by cell viability assessment using CCK-8 kit (Dojindo, Japan). For systemic safety evaluation, whole blood samples were collected for hematological analysis, biochemistry analysis and inflammatory profiling analysis. Following euthanasia, major organs were harvested, fixed and processed for H&E staining.

A further data set has as its system CLP-treated mice. The experiment in a line: Response to secondary infection, short-term exposure: LPS stimulation of whole blood. The data set is classed as in vivo, mouse. The following applies: blood taken 24 h post-CLP surgery, 1 μg LPS. The protocol:
To evaluate the impact of short-term (24 h) drug exposure on the secondary infection response. Whole blood samples were collected from each group at 24 h post-CLP surgery and stimulated with 1 μg of LPS. The IL-6 levels at 0 h, 2 h, and 4 h poststimulation were quantified via an ELISA kit.

Data set [2] deals with CLP-induced septic mice. The experiment in a line: Kaplan-Meier survival of CLP model mice. The data set is classed as in vivo, mouse. The protocol:
The cecal ligation and puncture (CLP) model was established in male C57BL/6 mice (9-10 weeks old). Briefly, a midline laparotomy was performed to exteriorize the cecum under general anesthesia. The cecum was ligated at the distal three-quarters using sutures. Subsequently, a single through-and-through puncture was made in the ligated segment using a 22-gaμge needle, followed by small volume of fecal content was gentle extrusion. The cecum was then repositioned within abdominal cavity, and the laparotomy incision was closed in layers. All animals were administered 1 mL of sterile saline for postoperative fluid resuscitation. Sham-operated controls underwent identical surgical procedures without cecal ligation or puncture. In this work, mice received administration via intravenous injection 1 hour after CLP surgery. The animal mortality was determined by the presence of confirmed death. […] Blood samples were collected 24 hours after CLP-modeling for hematological analysis (Mindray BC-60R Vet) and biochemical analysis (Mindray BS-240 Vet, China), endothelial injury analysis (Njjcbio, Nanjing) and coagulation analysis (Legene, Beijing). Subsequently, mice were sacrificed to collect the main organs for morphological and pathological analysis.

For another data set, the system named is mouse neutrophils. In words: C5a-triggered chemotaxis assay, mouse neutrophils (IncuCyte). It is filed as cell-based. As to conditions: 10 ng to 1 μg per well, 24 h. The procedure: The chemotaxis assay in this study was monitored and quantified by the IncuCyte ZOOM® Live-Cell Imaging System. The y-axis label “total area normalized to initial area in each group” in Fig. 3k, m represent the ratio of the total cell area at each time point to the initial area (0 h) within the same field of view. A higher ratio indicates […] cell migration activity.
One hundred nanograms of human C5a protein (ACROBiosystems, Beijing, China) was preincubated with linear or cyclic peptides at the indicated concentrations (10 ng, 100 ng, or 1 μg) in 1640 complete culture medium for 30 min. PMNs isolated by flow cytometric sorting for chemotaxis assays were purchased from Oribiotech Co., Ltd. (Shanghai, China). A total of 1 × 10^4 cells were added to the upper chamber of 96-well cell chemotaxis plates (Sartorius, Germany) and allowed to migrate at 37 °C for 24 h. The chemotactic response of neutrophils toward C5a with or without C5a-blocking peptides was quantified and analyzed via an IncuCyte ZOOM® Live-Cell Imaging System (Sartorius, Germany). The chemotactic response of mouse neutrophils was assessed following the established protocol for PMNs.

For data set [3], the system named is CLP-induced septic mice. The experiment in a line: Bacterial burden in blood (CFU) of CLP mice. It is filed as in vivo, mouse. The protocol:
Whole blood samples were aseptically dropped onto nutrient agar plates. Glass beads were added, and the samples were rocked horizontally to ensure the uniform distribution of blood samples. The inoculated plates were incubated at 37 °C for 24 h, after which colony-forming units (CFUs) were counted. The colonies on the culture plates were counted via ProtoCOL 3 HD (Synbiosis, UK).

For the next data set, the target named is T2, mouse C5a (Mus musculus, UniProt P06684).
T2 sequence (P06684 679-755 limits assumed): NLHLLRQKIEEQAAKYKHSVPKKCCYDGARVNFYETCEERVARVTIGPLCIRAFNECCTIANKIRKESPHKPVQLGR
In words: Plasma C5a/C5 ratio by ELISA after Cp1. It is filed as in vivo. As to conditions: 100 μg/20 g, normal mice or CLP model mice. The source says:
We evaluated the in vivo neutralization of Cp1 against C5a by measuring the plasma C5a/C5 ratio in normal mice or CLP model mice.
For orientation: In an ELISA, binding on a coated surface is turned into a signal by an enzyme label.

In the case of `CSCC[C@@H]1NC(=O)[C@@H]2CCCN2C(=O)[C@H](CCSC)NC(=O)[C@H](CO)NC(=O)[C@H](Cc2c[nH]cn2)NC(=O)CNC(=O)[C@H](CO)NC(=O)[C@H](Cc2ccccc2)NC(=O)[C@H](CCCNC(=N)N)NC(=O)[C@H](CCC(=O)O)NC(=O)[C@H](Cc2ccccc2)NC(=O)[C@H](C(C)C)NC1=O` [Cp1] (cyclo(HSMPMVFERFSG)), in data set [1], the “DEGs downregulated after Cp1 preincubation” value worked out at 2235. In addition, at human C5a (pH 7.4, read-out: Ka vs hC5a (SPR)), the kon worked out at 53300 M⁻¹ s⁻¹. The koff at human C5a (read-out: Kd (dissociation rate) vs hC5a (SPR)) was 0.395 s⁻¹. The “hepatorenal toxicity and tissue injury (blood biochemistry, histopathology)” value in the data set on normal mice was “no hepatorenal toxicity or tissue injury”. In addition, in the data set on CLP-treated mice, the “IL-6 level at 2 h post-LPS stimulation vs CLP control group” value is reported as “obviously increased IL-6 levels”. Besides, the “improvement in the median survival time vs untreated CLP group” value with CLP-induced septic mice [2] (mouse, in vivo) amounted to 300%. The molecule further yielded a 7-day survival rate in the data set with CLP-induced septic mice [2] (single administration 100 μg/20 g, n = 10) of 60%. The “suppression of C5a-driven recruitment of mouse neutrophils” value in the data set with mouse neutrophils is given as “dose-dependently suppressed”. The “reduction of bacterial burden (CFUs/mL in blood) vs CLP” value in the data set on CLP-induced septic mice [3] (100 μg Cp1, 24 h post-CLP) was 93%; with CLP-induced septic mice [3] (300 μg Cp1, 24 h post-CLP), 86%. Also, on mouse C5a, the “plasma C5a/C5 ratio” value is “decreased ratio of C5a/C5”.
